# Experimental data published in article PMC9965625, “Endocannabinoid 2-Arachidonoylglycerol Synthesis and Metabolism at Neuronal Nuclear Matrix Fractions Derived from Adult Rat Brain Cortex” (International Journal of Molecular Sciences, 2023).
# Target: T1, α/β-hydrolase domain 12 protein (ABHD12) (Rattus norvegicus, UniProt Q6AYT7)
# T1 construct: native enzyme in nuclear matrix fraction of adult rat brain cortex
# T1 sequence (Q6AYT7 1-398): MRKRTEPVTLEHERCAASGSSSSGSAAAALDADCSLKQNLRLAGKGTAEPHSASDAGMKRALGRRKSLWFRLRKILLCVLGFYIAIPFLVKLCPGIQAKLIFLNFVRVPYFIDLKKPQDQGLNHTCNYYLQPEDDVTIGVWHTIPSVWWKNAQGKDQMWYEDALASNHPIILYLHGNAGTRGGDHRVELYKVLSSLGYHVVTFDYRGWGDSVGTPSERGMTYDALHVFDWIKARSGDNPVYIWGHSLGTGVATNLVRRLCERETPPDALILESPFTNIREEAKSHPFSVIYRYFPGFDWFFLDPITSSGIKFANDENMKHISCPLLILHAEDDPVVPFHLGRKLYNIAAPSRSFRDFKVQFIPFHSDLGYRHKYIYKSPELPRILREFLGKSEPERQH
# Experiment: LC/MS/MS of arachidonic acid formed from […] exogenous 2-AG in nuclear matrix fraction, blocked by MAFP
# Format: cell-based
smiles,measurement,value
CCCCC/C=C\C/C=C\C/C=C\C/C=C\CCCC(=O)OC(CO)CO [2-AG],LC/MS/MS of arachidonic acid formed from 10 μM exogenous 2-AG in nuclear matrix,ABHD12 is the main responsible for the hydrolysis of 2-AG in the nuclear matrix
